# Data from paper PMC8838415, “Discovery of Novel Pleuromutilin Derivatives as Potent Antibacterial Agents for the Treatment of MRSA Infection” (Molecules, 2022).
# Assays:
# S. aureus (AD3) = test: MIC and MBC, broth dilution, S. aureus AD3; assay type: cell-based; conditions: Staphylococcus aureus; S. aureus AD3 (clinical strain)
# Description: (§1) The synthesized pleuromutilin derivatives 8–30 were tested against four Gram-positive bacteria (MRSA ATCC 43300, S. aureus ATCC 29213 and two clinical strains of S. aureus (AD3 and 144) isolated from Guangdong Province). Tiamulin was used as the positive control in this experiment.
# (§2) MIC values were tested following our previous work. The derivatives were dissolved in an aqueous solution of 2.5% tween-80 and 2.5% DMSO to make a solution with a concentration of 1000 µg/mL. The solution was diluted 12 times with MH broth to give a concentration range of 32–0.01 µg/mL. The bacteria (5 × 10^5 CFU/mL) were added in each well. For each compound concentration, three parallel experiments were set. The 96-well plate was incubated for 22–26 h at 37 °C. The MIC value was recorded as the minimal concentration that inhibits the visible growth of tested bacteria completely.
# (§3) The MBC of these pleuromutilin derivatives were tested according to a previously reference. […] Then, the values of MBC were determined by laying 100 μL aliquots from the wells onto the MH agar plates without visible growth. The MH agar plate was cultured for a further 22–26 h at 37 °C.
# [1] = system: methicillin-resistant S. aureus (ATCC 43300); test: MIC and MBC, broth dilution, MRSA ATCC 43300; assay type: cell-based; conditions: Staphylococcus aureus
# Description: as §1, §2, §3
# S. aureus (144) = test: MIC and MBC, broth dilution, S. aureus 144; assay type: cell-based; conditions: Staphylococcus aureus; S. aureus 144 (clinical strain)
# Description: as §1, §2, §3
# S. aureus (ATCC 29213) = test: MIC and MBC, broth dilution, S. aureus ATCC 29213; assay type: cell-based; conditions: Staphylococcus aureus, ATCC29213
# Description: as §1, §2, §3
# 50S ribosome = test: SPR interaction and affinity analysis; assay type: binding, S. aureus ATCC 43300; conditions: 4 °C; for Avg ka / Avg kd: 1:1 Langmuir binding; for Kd: KD = Kd/Ka
# Description: S. aureus ATCC 43300 was used to prepare the 50S ribosomal subunit the same way as described previously. Cells were grown overnight in Brain Heart Infusion broth at 37 °C and harvested for 1.5 h at an OD600. Cells were washed with 10 mM Tris-HCl twice at pH = 7.5, and resuspended in 5 mL buffer A (20 mM HEPES-HCl pH = 7.5, 21 mM Mg(OAc)2, 100 mM NH4Cl, 1 mM DTT, 1 mM EDTA). Cells were broken by an ultrasound crusher. The lysate was centrifuged for 90 min at 20,000× g to clear cell debris.
# The solution was layered on a sucrose cushion of 15 mL (10 mM Hepes-KOH pH 7.5, 25 mM Mg(OAc)2, 500 mM KCl, […], 1 mM DTT, 0.5 mM EDTA). Centrifugation was carried out for 15 h at 45,000 rpm using an ultracentrifuge Beckman (Beckman Coulter, Shanghai, China), Type 70Ti rotor. The crude ribosome pellet was resuspended in buffer E (10 mM Hepes-KOH pH 7.5, 10 mM Mg(OAc)2, 100 mM KCl, 1 mM DTT, 0.5 mM EDTA), then layered on 9 mL of 7–30% sucrose gradient and centrifuged in an ultracentrifuge Beckman, type SW40Ti rotor at 17,100 rpm for 15 h. The gradient was analyzed on the AKTA explorer system (Amersham, UK). The fractions corresponding to the 50S ribosomal subunit were collected and further subjected to precipitation by PEG 20,000. The 50S ribosomal subunit pellet was gently dissolved in 200 µL of storage buffer (10 mM HEPES-HCl pH = 7.5, 10 mM Mg(OAc)2, 15 mM KCl, 60 mM NH4Cl, 1 mM DTT) and stored at −80 °C.
# SPR affinity analysis was performed on the bScreen LB 991 Label-free Microarray System (Berthold Technologies, Black Forest, Germany) at 4 °C and Biodot AD-1520 Array Printer (BIODOT Inc., Irvine, CA, USA) with a Photo-cross-linker SensorCHIP™. Concentrations of each compound were diluted to 100 μM with DMSO as the printing working solution for immobilization. A Biodot AD-1520 Array Printer (BIODOT Inc., CA, USA) was used to control the photo-cross-linker sensor chip and print samples. Each sample was printed four times. In order to check the chip quality and check whether the detection system works, DMSO was used as a system-negative control and rapamycin as a positive control. All positive control dots were divided into four groups and printed on the four corners of the sensor chip. The sensor chip was dried in vacuum after the array print and quickly transferred to a spectra radiator for a photo cross-linking reaction. The sensor chip was washed with C2H5OH, DMF and H2O in turn and evaporated in a N2 atmosphere for 15 min. Then, the Flowcell Cover were assembled.
# The 50S ribosome was diluted separately to 200 nM, 400 nM, 800 nM, 1600 nM and 3200 nM with PBST (pH = 7.4, 0.1% Tween 20). Different concentrations of ribosome solutions were injected at a flow rate of 0.5 μL⋅s^−1 for 600 s at the associating stage at 4 °C, followed by PBST at a flow rate of 0.5⋅μL·s^−1 for 360 s at each dissociating stage. Then, the surface was regenerated with Glycine-HCl (pH = 2.0) at a flow rate of 2⋅μL·s^−1 for 300 s.
# The raw data of the binding process of compounds and the 50S ribosome were recorded in real time. We compared the response unit (RU) of surface resonance to determine the different binding affinity between each sample dot. The process and analysis of association rate constants (Ka) and dissociation rate constants (Kd) and the equilibrium dissociation constant (KD, Kd/Ka) were performed using the data analysis software of the bScreen LB 991 Label-free Microarray System according to a single-site binding model (1:1 Langmuir binding) with mass transfer limitations for binding kinetics determination.
Compound,MBC (S. aureus (AD3)),MIC (S. aureus (AD3)),MBC [1],MIC [1],melting point,MBC (S. aureus (144)),MIC (S. aureus (144)),MBC (S. aureus (ATCC 29213)),MIC (S. aureus (ATCC 29213)),Avg ka (50S ribosome),Avg kd (50S ribosome),Kd (50S ribosome)
"C=C[C@]1(C)C[C@@H](OC(=O)CNCCc2ccccc2C)[C@]2(C)[C@H](C)CC[C@]3(CCC(=O)[C@H]32)[C@@H](C)[C@@H]1O [Compound 18, 22-(2-Methylphenethylamineyl)-22-deoxypleuromutilin]",16 µg/mL,4 µg/mL,2 µg/mL,1 µg/mL,91 to 93 °C,4 µg/mL,4 µg/mL,8 µg/mL,2 µg/mL,134 M⁻¹ s⁻¹,0.00445 s⁻¹,33.2 µM
"C=C[C@]1(C)C[C@@H](OC(=O)CNCCCc2ccccc2)[C@]2(C)[C@H](C)CC[C@]3(CCC(=O)[C@H]32)[C@@H](C)[C@@H]1O [Compound 19, 22-(3-Phenylpropylamineyl)-22-deoxypleuromutilin]",4 µg/mL,1 µg/mL,2 µg/mL,1 µg/mL,83 to 84 °C,8 µg/mL,4 µg/mL,4 µg/mL,2 µg/mL,3110 M⁻¹ s⁻¹,0.000469 s⁻¹,0.151 µM
"C=C[C@]1(C)C[C@@H](OC(=O)CNCCc2cccs2)[C@]2(C)[C@H](C)CC[C@]3(CCC(=O)[C@H]32)[C@@H](C)[C@@H]1O [Compound 20, 22-(Thiophene-2-ethylamineyl)-22-deoxypleuromutilin]",16 µg/mL,4 µg/mL,1 µg/mL,0.5 µg/mL,69 to 70 °C,4 µg/mL,2 µg/mL,2 µg/mL,2 µg/mL,624 M⁻¹ s⁻¹,0.0197 s⁻¹,31.6 µM
"C=C[C@]1(C)C[C@@H](OC(=O)CNCCCC)[C@]2(C)[C@H](C)CC[C@]3(CCC(=O)[C@H]32)[C@@H](C)[C@@H]1O [Compound 21, 22-Butylamineyl-22-deoxypleuromutilin]",8 µg/mL,4 µg/mL,4 µg/mL,2 µg/mL,74 to 75 °C,8 µg/mL,8 µg/mL,4 µg/mL,4 µg/mL,4.24 M⁻¹ s⁻¹,0.0231 s⁻¹,5440 µM
"C=C[C@]1(C)C[C@@H](OC(=O)CNCCCCCCCC)[C@]2(C)[C@H](C)CC[C@]3(CCC(=O)[C@H]32)[C@@H](C)[C@@H]1O [Compound 22, 22-Octylamineyl-22-deoxypleuromutilin]",> 32 µg/mL,32 µg/mL,32 µg/mL,16 µg/mL,76 to 77 °C,> 32 µg/mL,32 µg/mL,> 32 µg/mL,16 µg/mL,114 M⁻¹ s⁻¹,0.00073 s⁻¹,6.41 µM
"C=C[C@]1(C)C[C@@H](OC(=O)CNCCCCCCCCCCCC)[C@]2(C)[C@H](C)CC[C@]3(CCC(=O)[C@H]32)[C@@H](C)[C@@H]1O [Compound 23, 22-Dodecylamineyl-22-deoxypleuromutilin]",> 32 µg/mL,32 µg/mL,32 µg/mL,32 µg/mL,75 to 77 °C,> 32 µg/mL,32 µg/mL,> 32 µg/mL,32 µg/mL,24100 M⁻¹ s⁻¹,0.0011 s⁻¹,0.0456 µM
"C=C[C@]1(C)C[C@@H](OC(=O)CNCCCCCCCCCCCCCCCC)[C@]2(C)[C@H](C)CC[C@]3(CCC(=O)[C@H]32)[C@@H](C)[C@@H]1O [Compound 24, 22-Hexadecylamineyl-22-deoxypleuromutilin]",> 32 µg/mL,> 32 µg/mL,> 32 µg/mL,32 µg/mL,76 to 79 °C,> 32 µg/mL,32 µg/mL,> 32 µg/mL,32 µg/mL,–,0.0375 s⁻¹,993 µM
"C=C[C@]1(C)C[C@@H](OC(=O)CNCCS(C)(=O)=O)[C@]2(C)[C@H](C)CC[C@]3(CCC(=O)[C@H]32)[C@@H](C)[C@@H]1O [Compound 25, 22-(2-(Methylsulfonyl)ethylamineyl)-22-deoxypleuromutilin]",4 µg/mL,2 µg/mL,2 µg/mL,1 µg/mL,183 to 186 °C,8 µg/mL,4 µg/mL,2 µg/mL,2 µg/mL,2.70 M⁻¹ s⁻¹,0.00833 s⁻¹,3080 µM
"C=C[C@]1(C)C[C@@H](OC(=O)CNCCSC)[C@]2(C)[C@H](C)CC[C@]3(CCC(=O)[C@H]32)[C@@H](C)[C@@H]1O [Compound 26, 22-(2-(Methylthio)ethylamineyl)-22-deoxypleuromutilin]",4 µg/mL,1 µg/mL,1 µg/mL,1 µg/mL,153 to 155 °C,4 µg/mL,2 µg/mL,2 µg/mL,2 µg/mL,1.26 M⁻¹ s⁻¹,0.779 s⁻¹,–
